Experiments:
[1] = Feed efficiency test on a ruminant; format: in vivo, Cattle (Holstein); settings: 240 days; for The average increase in the body weight during the test period: castrated Holstein oxen; for The improved ratio of the rate of concentrated feed requirement: versus no addition
Description: Feed efficiency test on a ruminant Cattle tested: Holstein
Basal feed: • Concentrated feed: [formula]
(§1) Method: • Twenty five castrated Holstein oxen 9 months of age were divided into 5 groups of 5 each in such a way that the average body weight is almost the same in each group. Concentrated basal feeds to which 0, 10, and 20 ppm each of 5057A and 5057B had been added were each administered over the period of 240 days. As a crude feed, 1 kg per animal of straw of rice plants were administered.

Eimeria tenellum = test: Preventive and treating activity against coccidiosis in a domestic fowl; format: in vivo; settings: for Relation rate of the increase in the body weight: noninfection control = 100; for OPG: number of oocysts in 1 g of stool, 7 days after the inoculation; for Death rate: white leghorn chickens inoculated p.o. with oocysts; for preventive and treating activity against coccidiosis: conclusion in text from Table 5
Description: The preventive and treating activity against coccidiosis in a domestic fowl Domestic fowls tested: white leghorns Basal feed:
Method: • Fifty male white leghorn chickensl4 days of age were divided into 5 groups of 10 each. To the basal feed were added 50 and 100 ppm each of 5057A and 5057B. Infection with coccidiosis was done by inoculating […] per chicken of spore-forming oocysts of Eimeria tenellum directly p.o. into the crop of the chickens.
Groupsl - 4 were reared with the feeds containing predetermined concentrations of the 5057 substances, starting from 1 day before the inoculation with oocysts. Group 5 is an infection control that was inoculated with oocysts and reared with the basal feed containing no agents tested and Group 6 is a noninfection control. After 7 days after the inoculation with oocysts, the number of oocysts (OPG) in 1 g of stool was counted.

[2] = Propionic acid/acetic acid ratio in gastric juice from the rumen of the oxen tested; format: in vivo, Cattle (Holstein); settings: for The propionic acid concentration/The acetic acid concentration (the average value): rumen gastric juice; for ratio between propionic acid/acetic acid in the gastric juice in the rumen: as compared with the case of no addition
Description: as §1
The administration of the feeds to which the present substances had been added improved the utilization rate of the concentrated feed by 10 - 17% and the increased amount of the body weight by 3 - 8%. The gastric juice from the rumen of the oxen tested was collected and measured for the concentrations of acetic and propionic acids, thus the ratio between them being calculated.

[3] = Feed efficiency test on domestic fowls; format: in vivo; settings: 70 days; for The average increase in the body weight during the test period / The average ingested amount of feed during the test period: chickens; for The rate of feed requirement: ingested feed / body weight increase; for The improved ratio of the rate of feed requirement: versus no addition
Description: Feed efficiency test on domestic fowls
Domestic fowls tested: species used exclusively for broiler (Aber Acres species) Basal feed:
Method: • Fifty newborn chickens were divided into 5 groups of 10 each in such a way that the average body weight is the same in each group. Premixes of 5057A and 5057B were added to the foregoing basal feed so that the contents of 5057A and 5057B are .40 ppm and 80 ppm, respectively. This feed was administered to the animals over the period of 70 days, and the body weight and the ingested amount of the feed were measured.

[4] = Feed efficiency test on swine; format: in vivo, swine (landrace); settings: for The rate of feed requirement / The average increase in the body weight during the test period / The average ingested amount of feed during the test period / The improved ratio of the rate of feed requirement: 12 weeks; for The average increase in the body weight during the test period / The average ingested amount of feed during the test period: young pigs; for The improved ratio of the rate of feed requirement: versus no addition; for The total number of days of diarrheal stool in each group / The total number of days during the test period in each group: 6 pigs, period of 4 weeks
Description: Feed efficiency test on swine
Method: • Thirty young pigs were divided into 5 groups of 6 each in such a way that the average body weight is the same in each group. To the basal feed were added 0, 25, and 50 ppm each of 5057A and 5057B. The resulting basal feeds were administered over the period of 12 weeks and the body weight and the ingested amount of the feeds were measured. The total number of days that the pigs suffered from diarrhea during the period of 4 weeks was counted.

Acute toxicity test = settings: mouse, in vivo, mice
Description: An acute toxicity test was carried out with mice. As a result, the LD50 value of the 5057A and 5057B substances is 50 mg/kg i.p. and 50 mg/kg or more p.o. [drawing 14] [drawing 15]

[5] = 10 ppm, 1 day after the administration
[6] = 10 ppm, 21 days after the administration
[7] = 10 ppm, 56 days after the administration
[8] = 20 ppm, 1 day after the administration
[9] = 20 ppm, 21 days after the administration
[10] = 20 ppm, 56 days after the administration

SMILES: CCC(C(=O)C(C)C(O)C(C)C1OC(O)(C(C)C(=O)O)C(C)CC1C)C1OC(C)(C2(O)OC(CC)(C(C)O)CC2C)CC1C (stereo not drawn) [5057A]
- The average ingested amount of concentrated feed during the test period ([1]; 10 ppm in concentrated feed): 2413 kg
- The rate of concentrated feed requirement ([1]; 10 ppm in concentrated feed): 8.904
- The average increase in the body weight during the test period ([1]; 10 ppm in concentrated feed): 271 kg
- The improved ratio of the rate of concentrated feed requirement ([1]; 10 ppm in concentrated feed): 10.2%
- The average ingested amount of concentrated feed during the test period ([1]; 20 ppm in concentrated feed): 2365 kg
- The rate of concentrated feed requirement ([1]; 20 ppm in concentrated feed): 8.446
- The average increase in the body weight during the test period ([1]; 20 ppm in concentrated feed): 280 kg
- The improved ratio of the rate of concentrated feed requirement ([1]; 20 ppm in concentrated feed): 14.8%
- Relation rate of the increase in the body weight (Eimeria tenellum; 50 ppm in feed): 104%
- OPG (Eimeria tenellum; 50 ppm in feed): 0.01 x 10^4
- Death rate (Eimeria tenellum; 50 ppm in feed): 0%
- Relation rate of the increase in the body weight (Eimeria tenellum; 100 ppm in feed): 103%
- OPG (Eimeria tenellum; 100 ppm in feed): 0 x 10^4
- Death rate (Eimeria tenellum; 100 ppm in feed): 0%
- preventive and treating activity against coccidiosis (Eimeria tenellum): have a preventive and treating activity against coccidiosis
- The propionic acid concentration/The acetic acid concentration (the average value) [2, 5]: 0.80
- The propionic acid concentration/The acetic acid concentration (the average value) [2, 6]: 0.73
- The propionic acid concentration/The acetic acid concentration (the average value) [2, 7]: 0.78
- The propionic acid concentration/The acetic acid concentration (the average value) [2, 8]: 0.83
- The propionic acid concentration/The acetic acid concentration (the average value) [2, 9]: 0.96
- The propionic acid concentration/The acetic acid concentration (the average value) [2, 10]: 0.86
- ratio between propionic acid/acetic acid in the gastric juice in the rumen [2]: increases
- The average increase in the body weight during the test period ([3]; 40 ppm in feed): 2.54 kg
- The average ingested amount of feed during the test period ([3]; 40 ppm in feed): 5.59 kg
- The rate of feed requirement ([3]; 40 ppm in feed): 2.201
- The improved ratio of the rate of feed requirement ([3]; 40 ppm in feed): 4.3%
- The average increase in the body weight during the test period ([3]; 80 ppm in feed): 2.55 kg
- The average ingested amount of feed during the test period ([3]; 80 ppm in feed): 5.63 kg
- The rate of feed requirement ([3]; 80 ppm in feed): 2.218
- The improved ratio of the rate of feed requirement ([3]; 80 ppm in feed): 4.0%
- The rate of feed requirement ([4]; 25 ppm in feed): 2.353
- The average increase in the body weight during the test period ([4]; 25 ppm in feed): 45.35 kg
- The average ingested amount of feed during the test period ([4]; 25 ppm in feed): 106.7 kg
- The improved ratio of the rate of feed requirement ([4]; 25 ppm in feed): 4.3%
- The total number of days of diarrheal stool in each group / The total number of days during the test period in each group ([4]; 25 ppm in feed): 21/168
- The rate of feed requirement ([4]; 50 ppm in feed): 2.287
- The average increase in the body weight during the test period ([4]; 50 ppm in feed): 50.93 kg
- The average ingested amount of feed during the test period ([4]; 50 ppm in feed): 116.5 kg
- The improved ratio of the rate of feed requirement ([4]; 50 ppm in feed): 7.0%
- The total number of days of diarrheal stool in each group / The total number of days during the test period in each group ([4]; 50 ppm in feed): 11/168
- LD50 (Acute toxicity test; ip): 50 mg/kg
- LD50 (Acute toxicity test; po): ≥ 50 mg/kg

SMILES: CCC(C(=O)C(C)C(O)C(C)C1OC(O)(C(C)C(=O)O)C(C)CC1C)C1OC(C)(C2(O)OC(CC)(C(O)CC)CC2C)CC1C (stereo not drawn) [5057B]
- The average ingested amount of concentrated feed during the test period ([1]; 10 ppm in concentrated feed): 2406 kg
- The rate of concentrated feed requirement ([1]; 10 ppm in concentrated feed): 8.813
- The average increase in the body weight during the test period ([1]; 10 ppm in concentrated feed): 273 kg
- The improved ratio of the rate of concentrated feed requirement ([1]; 10 ppm in concentrated feed): 11.1%
- The average ingested amount of concentrated feed during the test period ([1]; 20 ppm in concentrated feed): 2354 kg
- The rate of concentrated feed requirement ([1]; 20 ppm in concentrated feed): 8.289
- The average increase in the body weight during the test period ([1]; 20 ppm in concentrated feed): 284 kg
- The improved ratio of the rate of concentrated feed requirement ([1]; 20 ppm in concentrated feed): 16.4%
- Relation rate of the increase in the body weight (Eimeria tenellum; 50 ppm in feed): 106%
- OPG (Eimeria tenellum; 50 ppm in feed): 0 x 10^4
- Death rate (Eimeria tenellum; 50 ppm in feed): 0%
- Relation rate of the increase in the body weight (Eimeria tenellum; 100 ppm in feed): 106%
- OPG (Eimeria tenellum; 100 ppm in feed): 0 x 10^4
- Death rate (Eimeria tenellum; 100 ppm in feed): 0%
- preventive and treating activity against coccidiosis (Eimeria tenellum): have a preventive and treating activity against coccidiosis
- The propionic acid concentration/The acetic acid concentration (the average value) [2, 5]: 0.79
- The propionic acid concentration/The acetic acid concentration (the average value) [2, 6]: 0.76
- The propionic acid concentration/The acetic acid concentration (the average value) [2, 7]: 0.77
- The propionic acid concentration/The acetic acid concentration (the average value) [2, 8]: 0.83
- The propionic acid concentration/The acetic acid concentration (the average value) [2, 9]: 1.00
- The propionic acid concentration/The acetic acid concentration (the average value) [2, 10]: 0.93
- ratio between propionic acid/acetic acid in the gastric juice in the rumen [2]: increases
- The average increase in the body weight during the test period ([3]; 40 ppm in feed): 2.67 kg
- The average ingested amount of feed during the test period ([3]; 40 ppm in feed): 5.74 kg
- The rate of feed requirement ([3]; 40 ppm in feed): 2.150
- The improved ratio of the rate of feed requirement ([3]; 40 ppm in feed): 6.6%
- The average increase in the body weight during the test period ([3]; 80 ppm in feed): 2.62 kg
- The average ingested amount of feed during the test period ([3]; 80 ppm in feed): 5.67 kg
- The rate of feed requirement ([3]; 80 ppm in feed): 2.164
- The improved ratio of the rate of feed requirement ([3]; 80 ppm in feed): 6.0%
- The rate of feed requirement ([4]; 25 ppm in feed): 2.348
- The average increase in the body weight during the test period ([4]; 25 ppm in feed): 47.62 kg
- The average ingested amount of feed during the test period ([4]; 25 ppm in feed): 111.8 kg
- The improved ratio of the rate of feed requirement ([4]; 25 ppm in feed): 4.6%
- The total number of days of diarrheal stool in each group / The total number of days during the test period in each group ([4]; 25 ppm in feed): 18/168
- The rate of feed requirement ([4]; 50 ppm in feed): 2.263
- The average increase in the body weight during the test period ([4]; 50 ppm in feed): 51.26 kg
- The average ingested amount of feed during the test period ([4]; 50 ppm in feed): 116.0 kg
- The improved ratio of the rate of feed requirement ([4]; 50 ppm in feed): 8.0%
- The total number of days of diarrheal stool in each group / The total number of days during the test period in each group ([4]; 50 ppm in feed): 6/168
- LD50 (Acute toxicity test; ip): 50 mg/kg
- LD50 (Acute toxicity test; po): ≥ 50 mg/kg

Source: patent EP0063238A1, “An efficiency-improving agent for feed and a preventive and treating agent for coccidiosis” (KAKEN PHARMACEUTICAL CO., LTD., priority 1981, dated 1982)
